Assay results as given in ChEMBL document CHEMBL1275575, “Susceptibility of Mycobacterium bovis BCG vaccine strains to antituberculous antibiotics” (Antimicrob Agents Chemother, 2009).
Values after ≈ are worked out from the molar mass of the structure shown.

Columns and labels:
Assay type in all cases: functional
[1] = tested on: Mycobacterium tuberculosis variant bovis; assay: Antibacterial activity against Mycobacterium bovis BCG-Denmark
[2] = tested on: Mycobacterium tuberculosis variant bovis; assay: Antibacterial activity against Mycobacterium bovis BCG-Glaxo
[3] = tested on: Mycobacterium tuberculosis variant bovis; assay: Antibacterial activity against Mycobacterium bovis BCG-japan
[4] = tested on: Mycobacterium tuberculosis variant bovis; assay: Antibacterial activity against Mycobacterium bovis BCG-Connaught
[5] = tested on: Mycobacterium tuberculosis variant bovis; assay: Antibacterial activity against Mycobacterium bovis BCG-Pasteur
[6] = tested on: Mycobacterium tuberculosis variant bovis; assay: Antibacterial activity against Mycobacterium bovis BCG-Connaught by Wayne's indirect method
[7] = tested on: Mycobacterium tuberculosis variant bovis; assay: Antibacterial activity against Mycobacterium bovis BCG-Moreau
[8] = tested on: Mycobacterium tuberculosis variant bovis; assay: Antibacterial activity against Mycobacterium bovis BCG-Russia

| Structure (SMILES) | MIC [1] | MIC [2] | MIC [3] | MIC [4] | MIC [5] | MIC [6] | MIC [7] | MIC [8] |
| --- | --- | --- | --- | --- | --- | --- | --- | --- |
| CN[C@@H]1[C@H](O[C@H]2[C@H](O[C@H]3[C@H](O)[C@@H](O)[C@H](N=C(N)N)[C@@H](O)[C@@H]3N=C(N)N)O[C@@H](C)[C@]2(O)C=O)O[C@@H](CO)[C@H](O)[C@H]1O [STREPTOMYCIN] | 2 µg/mL (≈ 3.44 µM) | 2 µg/mL (≈ 3.44 µM) | 0.25 µg/mL (≈ 0.43 µM) | 0.25 µg/mL (≈ 0.43 µM) | – | – | – | – |
| NNC(=O)c1ccncc1 [ISONIAZID] | 0.4 µg/mL (≈ 2.92 µM) | – | 0.06 µg/mL (≈ 0.438 µM) | 0.125 µg/mL (≈ 0.911 µM) | 0.1 µg/mL (≈ 0.729 µM) | – | – | – |
| CO[C@H]1/C=C/O[C@@]2(C)Oc3c(C)c(O)c4c(O)c(c(/C=N/N5CCN(C)CC5)c(O)c4c3C2=O)NC(=O)/C(C)=C\C=C\[C@H](C)[C@H](O)[C@@H](C)[C@@H](O)[C@@H](C)[C@H](OC(C)=O)[C@@H]1C [RIFAMPIN] | 0.016 µg/mL (≈ 0.0194 µM) | 0.031 µg/mL (≈ 0.0377 µM) | 0.063 µg/mL (≈ 0.0766 µM) | < 0.031 µg/mL | 0.063 µg/mL (≈ 0.0766 µM) | – | – | – |
| CC[C@H]1OC(=O)[C@H](C)[C@@H](O[C@H]2C[C@@](C)(OC)[C@@H](O)[C@H](C)O2)[C@H](C)[C@@H](O[C@@H]2O[C@H](C)C[C@H](N(C)C)[C@H]2O)[C@](C)(O)C[C@@H](C)CN(C)[C@H](C)[C@@H](O)[C@]1(C)O [AZITHROMYCIN] | – | – | – | 16 µg/mL (≈ 21.4 µM) | 1 µg/mL (≈ 1.34 µM) | – | – | – |
| O=C(O)c1cn(C2CC2)c2cc(N3CCNCC3)c(F)cc2c1=O [CIPROFLOXACIN] | – | – | – | 0.125 µg/mL (≈ 0.377 µM) | – | – | – | – |
| NC(=O)c1cnccn1 [PYRAZINAMIDE] | – | – | – | – | – | > 800 µg/mL | – | – |
| NC[C@H]1O[C@H](O[C@H]2[C@H](O)[C@@H](O[C@H]3O[C@H](CO)[C@@H](O)[C@H](N)[C@H]3O)[C@H](N)C[C@@H]2N)[C@H](O)[C@@H](O)[C@@H]1O [KANAMYCIN] | – | – | – | 1 µg/mL (≈ 2.06 µM) | – | – | – | – |
| CC[C@H]1OC(=O)[C@H](C)[C@@H](O[C@H]2C[C@@](C)(OC)[C@@H](O)[C@H](C)O2)[C@H](C)[C@@H](O[C@@H]2O[C@H](C)C[C@H](N(C)C)[C@H]2O)[C@](C)(O)C[C@@H](C)C(=O)[C@H](C)[C@@H](O)[C@]1(C)O [ERYTHROMYCIN] | – | – | – | 16 µg/mL (≈ 21.8 µM) | 4 µg/mL (≈ 5.45 µM) | – | 128 µg/mL (≈ 174 µM) | – |
| CC[C@@H](CO)NCCN[C@@H](CC)CO [ETHAMBUTOL] | 2.5 µg/mL (≈ 12.2 µM) | 2.5 µg/mL (≈ 12.2 µM) | 2 µg/mL (≈ 9.79 µM) | 2 µg/mL (≈ 9.79 µM) | – | – | – | – |
| CO[C@H]1/C=C/O[C@@]2(C)Oc3c(C)c(O)c4c(c3C2=O)C2=NC3(CCN(CC(C)C)CC3)NC2=C(NC(=O)/C(C)=C\C=C\[C@H](C)[C@H](O)[C@@H](C)[C@@H](O)[C@@H](C)[C@H](OC(C)=O)[C@@H]1C)C4=O [RIFABUTIN] | 0.016 µg/mL (≈ 0.0189 µM) | 0.016 µg/mL (≈ 0.0189 µM) | 0.063 µg/mL (≈ 0.0744 µM) | 0.063 µg/mL (≈ 0.0744 µM) | 0.063 µg/mL (≈ 0.0744 µM) | – | – | – |
| CCc1cc(C(N)=S)ccn1 [ETHIONAMIDE] | – | – | – | 4 µg/mL (≈ 24.1 µM) | – | – | – | – |
| CC1COc2c(N3CCN(C)CC3)c(F)cc3c(=O)c(C(=O)O)cn1c23 (stereo unspecified) [OFLOXACIN] | 0.75 µg/mL (≈ 2.08 µM) | – | – | < 0.031 µg/mL | 0.75 µg/mL (≈ 2.08 µM) | – | – | 1 µg/mL (≈ 2.77 µM) |
| CC[C@H]1OC(=O)[C@H](C)[C@@H](O[C@H]2C[C@@](C)(OC)[C@@H](O)[C@H](C)O2)[C@H](C)[C@@H](O[C@@H]2O[C@H](C)C[C@H](N(C)C)[C@H]2O)[C@](C)(OC)C[C@@H](C)C(=O)[C@H](C)[C@@H](O)[C@]1(C)O [CLARITHROMYCIN] | 0.07 µg/mL (≈ 0.0936 µM) | 0.15 µg/mL (≈ 0.201 µM) | – | 0.25 µg/mL (≈ 0.334 µM) | 0.3 µg/mL (≈ 0.401 µM) | – | 2 µg/mL (≈ 2.67 µM) | – |
| NCC[C@H](O)C(=O)N[C@@H]1C[C@H](N)[C@@H](O[C@H]2O[C@H](CN)[C@@H](O)[C@H](O)[C@H]2O)[C@H](O)[C@H]1O[C@H]1O[C@H](CO)[C@@H](O)[C@H](N)[C@H]1O [AMIKACIN] | – | – | – | 0.125 µg/mL (≈ 0.213 µM) | – | – | – | – |
